This assay addresses CSF-1R (Homo sapiens, UniProt P07333). Description: Peptide (non-phosphorylated) assay, fluorescence polarization competition immunoassay. The format is biochemical. Conditions: 0.7 nM CSF-1R, 308 μM SYEGNSYTFIDPTQ peptide, 1 mM ATP, 80 min; mean of at least three determinations; read-out: c-fms Peptide IC50. The method, boiled down:
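Human CSF-1R kinase reaction started with ATP and run 80 min at room temperature, then stopped with EDTA. Phosphopeptide detected by fluorescence polarization competition using anti-phosphotyrosine antibody and PTK green tracer after 30 min. Controls used 4% DMSO, with EDTA added before reaction start for positive controls.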
A general note: In fluorescence polarisation assays a small probe gives low polarisation when free and higher when bound to something large.
CSF-1R, sequence (P07333 20-972): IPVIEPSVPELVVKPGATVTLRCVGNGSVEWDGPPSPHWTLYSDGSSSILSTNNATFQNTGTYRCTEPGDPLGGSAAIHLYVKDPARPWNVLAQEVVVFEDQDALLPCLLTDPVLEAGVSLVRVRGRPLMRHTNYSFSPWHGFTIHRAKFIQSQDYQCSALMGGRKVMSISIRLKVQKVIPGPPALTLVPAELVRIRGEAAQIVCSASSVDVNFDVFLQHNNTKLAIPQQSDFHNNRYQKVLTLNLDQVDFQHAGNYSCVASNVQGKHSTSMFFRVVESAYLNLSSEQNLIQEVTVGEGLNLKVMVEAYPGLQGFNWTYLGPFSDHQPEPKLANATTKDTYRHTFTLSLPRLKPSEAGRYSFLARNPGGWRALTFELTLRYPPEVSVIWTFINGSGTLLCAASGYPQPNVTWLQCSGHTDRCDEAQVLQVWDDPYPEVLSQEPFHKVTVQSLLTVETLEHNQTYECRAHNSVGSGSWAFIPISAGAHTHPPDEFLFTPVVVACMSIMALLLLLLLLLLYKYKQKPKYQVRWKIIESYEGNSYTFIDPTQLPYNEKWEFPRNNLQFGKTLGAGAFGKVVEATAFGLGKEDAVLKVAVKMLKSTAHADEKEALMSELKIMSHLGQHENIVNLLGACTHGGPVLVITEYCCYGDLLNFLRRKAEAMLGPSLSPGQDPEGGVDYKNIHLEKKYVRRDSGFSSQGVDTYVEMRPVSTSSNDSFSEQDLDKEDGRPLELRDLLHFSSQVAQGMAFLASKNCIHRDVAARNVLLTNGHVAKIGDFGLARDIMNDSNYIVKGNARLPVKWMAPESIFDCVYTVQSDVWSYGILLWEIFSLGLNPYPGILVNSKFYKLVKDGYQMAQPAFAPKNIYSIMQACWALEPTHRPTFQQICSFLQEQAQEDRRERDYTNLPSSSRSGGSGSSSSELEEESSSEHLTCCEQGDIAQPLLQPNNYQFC
For the compound `CONC(=O)c1cn(-c2ccc3c(c2)CCC3)c2nc(Nc3ccc(C4CCN(CC(=O)NS(C)(=O)=O)CC4)cc3)ncc2c1=O` [Cpd 87, 8-indan-5-yl-2-{4-[1-(2-methanesulfonylamino-2-oxo-ethyl)-piperidin-4-yl]-phenylamino}-5-oxo-5,8-dihydro-pyrido[2,3-d]pyrimidine-6-carboxylic acid methoxy-amide], the IC50 is 2.4 nM.

With `CONC(=O)c1cn(-c2ccc3c(c2)CCC3)c2nc(Nc3ccc(-n4cccn4)cc3)ncc2c1=O` [Cpd 284, 8-indan-5-yl-5-oxo-2-(4-pyrazol-1-yl-phenylamino)-5,8-dihydro-pyrido[2,3-d]pyrimidine-6-carboxylic acid methoxy-amide], the IC50 amounted to 2.2 nM.

Consider `CONC(=O)c1cn(C2CCCCC2)c2nc(Nc3ccc(CCN4CCOCC4)cc3)ncc2c1=O` [Cpd 20, 8-cyclohexyl-2-[4-(2-morpholin-4-yl-ethyl)-phenylamino]-5-oxo-5,8-dihydro-pyrido[2,3-d]pyrimidine-6-carboxylic acid methoxy-amide], for which the IC50 is 3 nM.

As to `CONC(=O)c1cn(-c2ccc3c(c2)CCC3)c2nc(Nc3ccc(CCN4CCC(=O)CC4)cc3)ncc2c1=O` [Cpd 83, 8-indan-5-yl-5-oxo-2-{4-[2-(4-oxo-piperidin-1-yl)-ethyl]-phenylamino}-5,8-dihydro-pyrido[2,3-d]pyrimidine-6-carboxylic acid methoxy-amide], the IC50 was found to be 1 nM.

As for `CCOC(=O)CN1CCC(c2ccc(Nc3ncc4c(=O)c(C(=O)NOC)cn(-c5ccc6c(c5)CCC6)c4n3)cc2)CC1` [Cpd 86, {4-[4-(8-indan-5-yl-6-methoxycarbamoyl-5-oxo-5,8-dihydro-pyrido[2,3-d]pyrimidin-2-ylamino)-phenyl]-piperidin-1-yl}-acetic acid ethyl ester], the IC50 is 1.8 nM.

Regarding `CCc1ccc(-n2cc(C(=O)NOC)c(=O)c3cnc(Nc4ccc5c(ccn5C)c4)nc32)cc1` [Cpd 290, 8-(4-ethyl-phenyl)-2-(1-methyl-1H-indol-5-ylamino)-5-oxo-5,8-dihydro-pyrido[2,3-d]pyrimidine-6-carboxylic acid methoxy-amide], the IC50 was 0.9 nM.

In the case of `CONC(=O)c1cn(-c2ccc3c(c2)CCC3)c2nc(Nc3cccc(CCN4CCN(C)CC4)c3)ncc2c1=O` [Cpd 200, 8-indan-5-yl-2-{3-[2-(4-methyl-piperazin-1-yl)-ethyl]-phenylamino}-5-oxo-5,8-dihydro-pyrido[2,3-d]pyrimidine-6-carboxylic acid methoxy-amide], the half-inhibitory concentration (IC50) amounted to 1.3 nM.

`CONC(=O)c1cn(-c2ccc(OC(F)(F)F)cc2)c2nc(Nc3ccc(C4CCN(S(N)(=O)=O)CC4)cc3)ncc2c1=O` [Cpd 177, 5-oxo-2-[4-(1-sulfamoyl-piperidin-4-yl)-phenylamino]-8-(4-trifluoromethoxyphenyl)-5,8-dihydropyrido[2,3-d]pyrimidine-6-carboxylic acid methoxy-amide]: the IC50 was found to be 6.6 nM.

Regarding `CONC(=O)c1cn(-c2ccc3c(c2)CCC3)c2nc(Nc3ccc(CCN4CCCC(F)(F)C4)cc3)ncc2c1=O`, the IC50 turned out to be 1.7 nM.

As for `CONC(=O)c1cn(-c2ccc3c(c2)CCC3)c2nc(Nc3cccc(N4CCOCC4)c3)ncc2c1=O` [Cpd 325, 8-indan-5-yl-2-(3-morpholin-4-yl-phenylamino)-5-oxo-5,8-dihydro-pyrido[2,3-d]pyrimidine-6-carboxylic acid methoxy-amide], the IC50 stood at 0.5 nM.

As to `CONC(=O)c1cn(-c2ccc3c(c2)CCC3)c2nc(Nc3ccc(C4CCN(CCS(C)(=O)=O)CC4)cc3)ncc2c1=O` [Cpd 78, 8-indan-5-yl-2-{4-[1-(2-methanesulfonyl-ethyl)-piperidin-4-yl]-phenylamino}-5-oxo-5,8-dihydro-pyrido[2,3-d]pyrimidine-6-carboxylic acid methoxy-amide], the IC50 worked out at 0.72 nM.

`CCc1cccc(-n2cc(C(=O)NOC)c(=O)c3cnc(Nc4ccc(C5CCN(C)CC5)cc4)nc32)c1` [Cpd 212, 8-(3-ethyl-phenyl)-2-[4-(1-methyl-piperidin-4-yl)-phenylamino]-5-oxo-5,8-dihydro-pyrido[2,3-d]pyrimidine-6-carboxylic acid methoxy-amide]: the IC50 was found to be 0.36 nM.

In the case of `CONC(=O)c1cn(-c2ccc3c(c2)CCC3)c2nc(Nc3ccc(CCN4CCN(S(C)(=O)=O)CC4)cc3)ncc2c1=O` [Cpd 146, 8-indan-5-yl-2-{4-[2-(4-methanesulfonyl-piperazin-1-yl)-ethyl]-phenylamino}-5-oxo-5,8-dihydro-pyrido[2,3-d]pyrimidine-6-carboxylic acid methoxy-amide], the IC50 stood at 1.2 nM.

Consider `CONC(=O)c1cn(C2CCCCC2)c2nc(Nc3ccc(C4CCNCC4)cc3)ncc2c1=O` [Cpd 26, 8-cyclohexyl-5-oxo-2-(4-piperidin-4-yl-phenylamino)-5,8-dihydro-pyrido[2,3-d]pyrimidine-6-carboxylic acid methoxy-amide], for which the IC50 amounted to 1.4 nM.

For `CCONC(=O)c1cn(C2CCCCC2)c2nc(Nc3ccc(C4CCN(C)CC4)cc3)ncc2c1=O` [Cpd 141, 8-cyclohexyl-2-[4-(1-methyl-piperidin-4-yl)-phenylamino]-5-oxo-5,8-dihydro-pyrido[2,3-d]pyrimidine-6-carboxylic acid ethoxy-amide], the IC50 was 1.3 nM.

Take `CCN1CCC(c2ccc(Nc3ncc4c(=O)c(C(=O)NOC)cn(-c5ccc6c(c5)CCC6)c4n3)cc2)CC1` [Cpd 155, 2-[4-(1-ethyl-piperidin-4-yl)-phenylamino]-8-indan-5-yl-5-oxo-5,8-dihydro-pyrido[2,3-d]pyrimidine-6-carboxylic acid methoxy-amide]: the IC50 worked out at 0.12 nM.

With `CCONC(=O)c1cn(C2CCCCC2)c2nc(Nc3ccc(CCN4CCN(C)CC4)cc3)ncc2c1=O` [Cpd 19, 8-cyclohexyl-2-{4-[2-(4-methyl-piperazin-1-yl)-ethyl]-phenylamino}-5-oxo-5,8-dihydro-pyrido[2,3-d]pyrimidine-6-carboxylic acid ethoxy-amide], the IC50 is 1 nM.

For `NC(=O)c1cn(-c2ccc3c(c2)CCC3)c2nc(Nc3ccc(C(=O)N4CCCC4)cc3)ncc2c1=O` [Cpd 122, 8-indan-5-yl-5-oxo-2-[4-(pyrrolidine-1-carbonyl)-phenylamino]-5,8-dihydro-pyrido[2,3-d]pyrimidine-6-carboxylic acid amide], the half-inhibitory concentration (IC50) was found to be 6.6 nM.

Consider `CCc1ccc(-n2cc(C(=O)NOC)c(=O)c3cnc(Nc4ccc5cc[nH]c5c4)nc32)cc1` [Cpd 286, 8-(4-ethyl-phenyl)-2-(1H-indol-6-ylamino)-5-oxo-5,8-dihydro-pyrido[2,3-d]pyrimidine-6-carboxylic acid methoxy-amide], for which the IC50 is 1.3 nM.

For `CCc1ccc(-n2cc(C(=O)NOC)c(=O)c3cnc(Nc4ccc(C5CCN(CCO)CC5)cc4)nc32)cc1` [Cpd 95, 8-(4-ethyl-phenyl)-2-{4-[1-(2-hydroxy-ethyl)-piperidin-4-yl]-phenylamino}-5-oxo-5,8-dihydro-pyrido[2,3-d]pyrimidine-6-carboxylic acid methoxy-amide], the IC50 was determined as 1.8 nM.

As to `CONC(=O)c1cn(-c2ccc(OC(F)(F)F)cc2)c2nc(Nc3ccc(CCc4n[nH]c(C)n4)cc3)ncc2c1=O` [Cpd 191, 2-{4-[2-(5-methyl-1H-[1,2,4]triazol-3-yl)-ethyl]-phenylamino}-5-oxo-8-(4-trifluoromethoxyphenyl)-5,8-dihydropyrido[2,3-d]pyrimidine-6-carboxylic acid methoxy-amide], the IC50 worked out at 5.6 nM.

In general, IC50 refers to the midpoint of a concentration-inhibition curve.

These data come from patent publication US20080114007A1 (priority 2006, published 2008).
